In patent publication US20170334899A1, “AMINO-SUBSTITUTED ISOTHIAZOLES” (Bayer Pharma Aktiengesellschaft, priority 2014, published 2017):

What follows are compounds tested on HeLa (assay: Proliferation assay (crystal violet), HeLa). Conditions: HeLa cells; 4 days incubation; crystal violet staining; read-out: IC50 inhibition of proliferation, HeLa.
Format: cell-based
Outline: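 Tumor cells seeded at 1000–5000 cells/well in medium with 10% FCS; after 24 h, compounds added at 0.001–10 μM (0.5% DMSO) for 4 days. Cells fixed with glutaraldehyde, stained with crystal violet, dye dissolved in acetic acid and read at 595 nm. IC50 from 4-parameter fit, normalized to zero-point plate and untreated cells.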

IC50 [nM]	Structure (SMILES)
370	Cc1nsc(Nc2cnc(C(F)(F)F)cn2)c1C(=O)Nc1ccc(OC[C@@H]2CCCN(CCC(F)(F)F)C2)nc1 [Example 422, 3-Methyl-5-{[5-(trifluoromethyl)pyrazin-2-yl]amino}-N-(6-{[(3R)-1-(3,3,3-trifluoropropyl)piperidin-3-yl]methoxy}pyridin-3-yl)-1,2-thiazole-4-carboxamide]
550	Cc1nsc(Nc2cnc(C(F)(F)F)cn2)c1C(=O)Nc1ccc(O[C@@H]2CCN(CC(F)(F)F)C2)nc1 [Example 421, 3-Methyl-N-(6-{[(3R)-1-(2,2,2-trifluoroethyl)pyrrolidin-3-yl]oxy}pyridin-3-yl)-5-{[5-(trifluoromethyl)pyrazin-2-yl]amino}-1,2-thiazole-4-carboxamide]

Same assay, conditions: Homo sapiens, HeLa, 96 h, HeLa cells; 4 days incubation; crystal violet staining; read-out: IC50 inhibition of proliferation, HeLa

Structure (SMILES)	IC50 [nM]
Cc1nsc(Nc2cnc3ccccc3n2)c1C(=O)Nc1ccc(C(=O)NCCN2CCCC(F)(F)C2)cc1 [Example 156, N-(4-{[2-(3,3-difluoropiperidin-1-yl)ethyl]carbamoyl}phenyl)-3-methyl-5-(quinoxalin-2-ylamino)-1,2-thiazole-4-carboxamide]	> 10000
Cc1nsc(Nc2ccc(C#N)cn2)c1C(=O)Nc1ccc(N[C@@H](C)C(=O)OC(C)(C)C)nc1 [Example 170, tert-butyl N-{5-[({5-[(5-cyanopyridin-2-yl)amino]-3-methyl-1,2-thiazol-4-yl}carbonyl)amino]pyridin-2-yl}alaninate]	> 10000
Cc1nsc(Nc2cnc3ccccc3n2)c1C(=O)Nc1ccc(NC2CC2)nc1 [Example 172, N-[6-(cyclopropylamino)pyridin-3-yl]-3-methyl-5-(quinoxalin-2-ylamino)-1,2-thiazole-4-carboxamide]	> 10000
CC(=O)N(C)CCOc1ccc(NC(=O)c2c(C)nsc2Nc2nc3c(C(F)(F)F)cccc3s2)cn1 [Example 112, N-(6-{2-[Acetyl(methyl)amino]-ethoxy}pyridin-3-yl)-3-methyl-5-{[4-(trifluoromethyl)-1,3-benzothiazol-2-yl]amino}-1,2-thiazole-4-carboxamide]	8800
COc1ccc(NC(=O)c2c(C)nsc2Nc2ccc(C#N)cn2)c(N2CCOCC2)n1 [Example 173, 5-[(5-cyanopyridin-2-yl)amino]-N-[6-methoxy-2-(morpholin-4-yl)pyridin-3-yl]-3-methyl-1,2-thiazole-4-carboxamide]	> 10000
Cc1nsc(Nc2cnc3ccccc3n2)c1C(=O)Nc1cccc(C(=O)N[C@@H](CCC(N)=O)C(=O)O)c1 [Example 103, N^2-[3-({[3-Methyl-5-(quinoxalin-2-ylamino)-1,2-thiazol-4-yl]carbonyl}amino)-benzoyl]glutamine]	10000
Cc1nsc(Nc2cc(C#N)ccn2)c1C(=O)Nc1cccc(C(=O)N2CCCC2)c1 [Example 114, 5-[(4-Cyanopyridin-2-yl)amino]-3-methyl-N-[3-(pyrrolidin-1-ylcarbonyl)phenyl]-1,2-thiazole-4-carboxamide]	10000
Cc1nsc(Nc2cnc(C(F)(F)F)cn2)c1C(=O)Nc1ccc(F)c(C(N)=O)c1 [Example 151, N-(3-carbamoyl-4-fluorophenyl)-3-methyl-5-{[5-(trifluoromethyl)pyrazin-2-yl]amino}-1,2-thiazole-4-carboxamide]	8900
Cc1nsc(Nc2cncc(C(F)(F)F)n2)c1C(=O)Nc1ccc(C(=O)NCCN2CCCC(F)C2)cc1 (stereo not drawn) [Example 155, N-(4-{[2-(3-fluoropiperidin-1-yl)ethyl]carbamoyl}phenyl)-3-methyl-5-{[6-(trifluoromethyl)pyrazin-2-yl]amino}-1,2-thiazole-4-carboxamide]	9900
Cc1nsc(Nc2cnc3ccccc3n2)c1C(=O)Nc1ccc(N2CCOCC2)nc1 [Example 169, 3-methyl-N-[6-(morpholin-4-yl)pyridin-3-yl]-5-(quinoxalin-2-ylamino)-1,2-thiazole-4-carboxamide]	> 10000
Cc1nsc(Nc2cnc(C(F)(F)F)cn2)c1C(=O)Nc1ccc(C(=O)O)cc1 [Example 97, 4-{[(3-Methyl-5-{[5-(trifluoromethyl)pyrazin-2-yl]amino}-1,2-thiazol-4-yl)carbony]-amino}benzoic acid]	10000
Cc1nsc(Nc2cnc3ccccc3n2)c1C(=O)Nc1ccc(C(=O)N2CCN(CC(F)F)CC2)cc1 [Example 157, N-(4-{[4-(2,2-difluoroethyl)piperazin-1-yl]carbonyl}phenyl)-3-methyl-5-(quinoxalin-2-ylamino)-1,2-thiazole-4-carboxamide]	> 10000
Cc1nsc(Nc2cnc3ccccc3n2)c1C(=O)Nc1cccc(C(=O)N2CCNCC2)c1 [Example 101, 3-Methyl-N-[3-(piperazin-1-ylcarbonyl)phenyl]-5-(quinoxalin-2-ylamino)-1,2-thiazole-4-carboxamide]	10000

Now from value to compound:

IC50 [nM]	Structure (SMILES)
4400	CNS(=O)(=O)c1ccc(NC(=O)c2c(C)nsc2Nc2cnc3ccccc3n2)cc1 [Example 111, 3-Methyl-N-[4-(methylsulfannoyl)phenyl]-5-(quinoxalin-2-ylamino)-1,2-thiazole-4-carboxamide]
3200	Cc1nsc(Nc2cnc(C(F)(F)F)cn2)c1C(=O)Nc1ccc(C(=O)NC2CCN(CC(F)(F)F)CC2)cc1 [Example 165, 3-methyl-N-(4-{[1-(2,2,2-trifluoroethyl)piperidin-4-yl]carbamoyl}phenyl)-5-{[5-(trifluoromethyl)pyrazin-2-yl]amino}-1,2-thiazole-4-carboxamide]
3000	CCNS(=O)(=O)c1ccc(NC(=O)c2c(C)nsc2Nc2cnc3ccccc3n2)cc1 [Example 116, N-[4-(Ethylsulfamoyl)phenyl]-3-methyl-5-(quinoxalin-2-ylamino)-1,2-thiazole-4-carboxamide]
2800	Cc1nsc(Nc2cnc(C(F)(F)F)cn2)c1C(=O)Nc1ccc(C(=O)NCCN2CCCC(F)(F)C2)cc1 [Example 153, N-(4-{[2-(3,3-difluoropiperidin-1-yl)ethyl]carbamoyl}phenyl)-3-methyl-5-{[5-(trifluoromethyl)pyrazin-2-yl]amino}-1,2-thiazole-4-carboxamide]
2300	Cc1nsc(Nc2cnc3ccccc3n2)c1C(=O)Nc1ccc(C(=O)N2CCCN(CC(F)(F)F)CC2)cc1 [Example 159]
1800	CC(=O)N1CCC(Oc2ccc(NC(=O)c3c(C)nsc3Nc3cnc(C(F)(F)F)cn3)cn2)CC1 [Example 11, N-{6-[(1-Acetylpiperidin-4-yl)oxy]pyridin-3-yl}-3-methyl-5-{[5-(trifluoromethyl)-pyrazin-2-yl]amino}-1,2-thiazole-4-carboxamide]
1700	Cc1noc(-c2cccc(NC(=O)c3c(C)nsc3Nc3cnc4ccccc4n3)c2)n1 [Example 106, 3-Methyl-N-[3-(3-methyl-1,2,4-oxadiazol-5-yl)phenyl]-5-(quinoxalin-2-ylamino)-1,2-thiazole-4-carboxamide]
830	Cc1nsc(Nc2cncc(C(F)(F)F)n2)c1C(=O)Nc1ccc(OCC2CCCN(C(=O)OC(C)(C)C)C2)nc1 (stereo not drawn) [Example 166, tert-butyl 3-{[(5-{[(3-methyl-5-{[6-(trifluoromethyl)pyrazin-2-yl]amino}-1,2-thiazol-4-yl)carbonyl]amino}pyridin-2-yl)oxy]methyl}piperidine-1-carboxylate]
820	Cc1nsc(Nc2cnc(C(F)(F)F)cn2)c1C(=O)Nc1ccc(OCC2CCN(CCF)C2)nc1 (stereo not drawn) [Example 121, N-(6-{[1-(2-fluoroethyl)pyrrolidin-3-yl]methoxy}pyridin-3-yl)-3-methyl-5-{[5-(trifluoromethyl)pyrazin-2-yl]amino}-1,2-thiazole-4-carboxamide]
450	Cc1nsc(Nc2cnc(C(F)(F)F)cn2)c1C(=O)Nc1ccc(OC[C@H]2CCN(CC(F)F)C2)nc1 [Example 132, N-(6-{[(3S)-1-(2,2-difluoroethyl)pyrrolidin-3-yl]methoxy}pyridin-3-yl)-3-methyl-5-{[5-(trifluoromethyl)pyrazin-2-yl]amino}-1,2-thiazole-4-carboxamide]
340	CCCCN1CC[C@@H](Oc2ccc(NC(=O)c3c(C)nsc3Nc3cnc(C(F)(F)F)cn3)cn2)[C@@H](F)C1 [Example 141, N-(6-{[(3S,4R)-1-butyl-3-fluoropiperidin-4-yl]oxy}pyridin-3-yl)-3-methyl-5-{[5-(trifluoromethyl)pyrazin-2-yl]amino}-1,2-thiazole-4-carboxamide]
250	Cc1nsc(Nc2cnc(C(F)(F)F)cn2)c1C(=O)Nc1ccc(OC[C@@H]2CCN(CCC(F)(F)F)C2)nc1 [Example 129, 3-Methyl-5-{[5-(trifluoromethyl)pyrazin-2-yl]amino}-N-(6-{[(3R)-1-(3,3,3-trifluoropropyl)pyrrolidin-3-yl]methoxy}pyridin-3-yl)-1,2-thiazole-4-carboxamide]
240	Cc1nsc(Nc2cnc(C(F)(F)F)cn2)c1C(=O)Nc1ccc(O[C@H]2CCN(CCC(F)(F)F)C[C@H]2F)nc1 [Example 146, N-(6-{[(3R,4S)-3-fluoro-1-(3,3,3-trifluoropropyl)piperidin-4-yl]oxy}pyridin-3-yl)-3-methyl-5-{[5-(trifluoromethyl)pyrazin-2-yl]amino}-1,2-thiazole-4-carboxamide]
160	Cc1nsc(Nc2cnc(C(F)(F)F)cn2)c1C(=O)Nc1ccc(OC2CCN(CC(F)F)CC2)c(F)c1 [Example 164, N-(4-{[1-(2,2-difluoroethyl)piperidin-4-yl]oxy}-3-fluorophenyl)-3-methyl-5-{[5-(trifluoromethyl)pyrazin-2-yl]amino}-1,2-thiazole-4-carboxamide]
130	Cc1nsc(Nc2cnc(C(F)(F)F)cn2)c1C(=O)Nc1ccc(OCC2CCN(CC(F)(F)F)C2)nc1 (stereo not drawn) [Example 123, 3-Methyl-N-(6-{[1-(2,2,2-trifluoroethyl)pyrrolidin-3-yl]methoxy}pyridin-3-yl)-5-{[5-(trifluoromethyl)pyrazin-2-yl]amino}-1,2-thiazole-4-carboxamide]
